Reference: patent publication US6551831B2, “Dyes and methods of detection of nucleic acid in immature red blood cells” (Coulter International Corp., priority 2000, dated 2003)
Read-outs that look alike come from different tables or passages of the source.

Key:
calf liver RNA = experiment: Fluorescence of dyes in PBS with and without free calf liver RNA (spectrofluorometer); assay type: binding; conditions: for Fluorescence enhancement ratio (Bound/Unbound): RNA-bound dye intensity / free dye intensity; for Fluorescence Intensity Unbound to RNA / Fluorescence Intensity Bound to RNA: Table 1, peak emission wavelength; for Fluorescence Intensity Unbound to RNA: dye 2 μM in PBS, no RNA; for Fluorescence Intensity Bound to RNA: dye 2 μM, calf liver RNA 8 mg/ml in PBS
Procedure: For fluorescence measurements, a stock solution of each compound in DMSO was made (as described in Example 1D). A portion of this stock solution was diluted in PBS to obtain a dye concentration of 2 μm. 1 ml of this dilute solution was placed in a glass cuvette and the fluorescence spectra obtained exciting the dye at its excitation wavelength maximum. Next, 1 ml of a solution of free calf liver RNA (Sigma) dissolved in PBS at a concentration of 8 mg/ml, and a measured volume of the dye stock solution was mixed to obtain a dye concentration of 2 μM in the RNA solution. This dye solution diluted in the RNA solution was placed in a glass cuvette and the fluorescence spectra measured using the same excitation as in the previous measurement.
These intensities were obtained at the peak emission wavelengths of each fluorescence spectra measured as described above. FIG. 1C compares the fluorescence intensities of the RNA-bound and unbound dyes in graphical form.

Calf thymus DNA = experiment: Fluorescence of dyes in PBS with and without free calf thymus DNA, excitation 633 nm; assay type: binding; conditions: Table 5; for Fluorescence Intensity Unbound to DNA: Group-III dyes in PBS, peak of emission spectrum; for Fluorescence Intensity Bound to DNA 0.5 mg/ml: Group-III dyes
Procedure: To compare the relative fluorescence intensities of the dyes in bound and unbound states, fluorescence measurements were conducted in a spectrofluorometer by exciting each dye solution at 633 nm under appropriate conditions, recording the fluorescence spectrum of each sample, and measuring the intensities at the peak of these fluorescence spectra. […] Next, the fluorescence spectrum of the dye solution was measured by illuminating the sample at 633 nm.

Torula yeast RNA = experiment: Fluorescence of dyes in PBS with and without free Torula yeast RNA, excitation 633 nm; assay type: binding; conditions: Table 4, Group-III dyes; for Fluorescence Intensity Unbound to RNA: conc. 2 μm in PBS, peak of emission spectrum; for Fluorescence Intensity Bound to RNA 1 mg/ml: conc. 2 μm
Procedure: To compare the relative fluorescence intensities of the dyes in bound and unbound states, fluorescence measurements were conducted in a spectrofluorometer by exciting each dye solution at 633 nm under appropriate conditions, recording the fluorescence spectrum of each sample, and measuring the intensities at the peak of these fluorescence spectra. […] A portion of the stock solution for the Dye-1 was diluted in PBS to obtain a dye concentration of […]. […] The fluorescence spectrum of this dye solution in presence of RNA was measured by illuminating the sample at 633 nm.

reticulocytes [1] = system: reticulocytes
reticulocytes [2] = experiment: Rapid staining of reticulocytes in whole blood with dye in rapid staining composition, flow cytometry (HeNe 632.8 nm); assay type: cell-based; conditions: 5 μM dye, analyzed immediately
Procedure: Approximately 11.5 mW of 632.8 nm laser light from the above laser was incident on the beam shaping optics of the flow cytometer. Forward light scatter (FS), side scatter (SS) and one fluorescence (FL) parameter in the orthogonal direction were measured to analyze the red cells. The red cells were gated on a SS vs. FS dotplot. A fixed gate was then used to enumerate […] on a FL vs. FS dotplot. […] The […] reagent is a solution comprising about 20 μg/ml Dodecyl-β-D-maltoside and 0.05% Proclin 300 in PBS at about pH 7.4 and about 290 mOsm. […] The mixture was then aspirated into the XLTM flow cytometer containing the red HeNe laser for analysis. […] The mixture was then aspirated into the XLTM flow cytometer containing the red HeNe laser for analysis. […] The […] reagent is a solution comprising about 20 μg/ml Dodecyl-β-D-maltoside and 0.05% Proclin 300 in PBS at about pH 7.4 and about 290 mOsm. […] The […] reagent is a solution comprising about 20 μg/ml Dodecyl-β-D-maltoside and 0.05% Proclin 300 in PBS at about pH 7.4 and about 290 mOsm. […] The […] reagent is a solution comprising about 20 μg/ml Dodecyl-β-D-maltoside and 0.05% Proclin® 300 in PBS at about pH 7.4 and about 290 mOsm.

Row | SMILES | Fluorescence enhancement ratio (Bound/Unbound) (calf liver RNA) | Fluorescence Intensity Unbound to RNA (calf liver RNA) | Fluorescence Intensity Bound to RNA (calf liver RNA) | Fluorescence Intensity Unbound to DNA (Calf thymus DNA) | Fluorescence Intensity Bound to DNA 0.5 mg/ml (Calf thymus DNA) | Fluorescence Intensity Unbound to RNA (Torula yeast RNA) | Fluorescence Intensity Bound to RNA 1 mg/ml (Torula yeast RNA) | other results
1 | Cc1ccc2c(c1)sc(/C=C/C=C1\C=CN(C(C)C)c3ccccc31)[n+]2CCO [ReticRed5] | 292.884 | 2.24 | 656.06 |  |  |  |  | 
2 | C[n+]1c(/C=C/C=C2\C=CN(Cc3ccccc3B(O)O)c3ccccc32)sc2ccccc21 [Dye-6] |  |  |  | 4 | 380 | 6 | 410 | 
3 | CCNc1cc2[s+]c3cc(NCC)c(C)cc3nc2cc1C.[Cl-] [New Methylene Blue] |  |  |  |  |  |  |  | retic percentage (reticulocytes [1]; Gen*S method, blood sample of Example 3): 6.7%; retic percentage (reticulocytes [1]; normal donor of Example 4 Run 3, commercially available clinical hematology analyzer): 0.95%
4 | OCC[n+]1c(/C=C/C=C2\C=CN(Cc3ccccc3)c3ccccc32)sc2ccccc21 [Dye-5] |  |  |  | 10 | 660 | 10 | 420 | 
5 | Cc1ccc2c(c1)sc(/C=C/C=C1\C=CN(CCO)c3ccccc31)[n+]2CCO [ReticRed6] | 225.164 | 2.75 | 619.2 |  |  |  |  | 
6 | COc1cc(CN2C=C/C(=C\C=C\c3sc4ccccc4[n+]3CCO)c3ccccc32)cc(OC)c1 [Dye-3] |  |  |  | 15 | 400 | 10 | 328 | percentage of reticulocytes enumerated (reticulocytes [2]; Example 9 Run 7, normal donor): 2.3%; percentage of reticulocytes enumerated (reticulocytes [2]; Example 9 Run 8, abnormal donor (reference 12%)): approximately 14.6%; percentage of reticulocytes enumerated (reticulocytes [2]; Example 9 Run 9, another abnormal donor (reference 27%)): approximately 24%
